Here are results for 16 compounds from US8481531B2, “Bicyclic heterocyclyl derivatives as FGFR kinase inhibitors for therapeutic use” (Astex Therapeutics Ltd, priority 2009, dated 2013).

The subject of assay [1] is parental wild-type Ba/F3 cells. As to the kind of experiment: Ba/F3 (WT) cell proliferation assay (Alamar Blue). The following applies: BaF3, 72 hours, read-out: BaF3 WT prolif; for inhibition at 10 µM / inhibition at 3 µM: Mus musculus; for IC50: with mouse IL-3. It counts as cell-based. As to the method:
(§1) Ba/F3-TEL-FGFR3 & Ba/F3 (WT) Cell Proliferation Assays
(§2) Stably transfected Ba/F3-TEL-FGFR3 cells were plated out into black 96-well tissue culture plates with clear bottoms in RPMI medium containing 10% FBS and 0.25 mg/ml G418 at a density of 5×10^3 cells/well (200 μl per well). The parental wild-type Ba/F3 cells (DSMZ no.: ACC 300) were plated out into black 96-well tissue culture plates with clear bottoms in RPMI medium containing 10% FBS and 2 ng/ml mouse IL-3 (R&D Systems) at a density of 2.5×10^3 cells/well (200 μl per well). Plates were placed in an incubator overnight before adding the compounds the following day. Dilutions of compounds were made in DMSO starting at 10 mM and were diluted into the wells to give a final DMSO concentration of 0.1% in assay. Compounds were left on the cells for 72 hours before the plates were removed from the incubator and 20 μl of Alamar Blue™ (Biosource) was added to each well. Plates were placed in the incubator for 4-6 hours before reading plates at 535 nm (excitation)/590 nm (emission) on a Fusion plate reader (Packard). Where inhibition is high an IC50 can be determined.
(The colour change of resazurin is a common sign of viable cells or microbes.)

A further assay has as its target T1, Ba/F3-TEL-FGFR3 cells (Homo sapiens, UniProt P22607).
T1 construct: fused on or other part: P41212 (Transcription factor ETV6)
As to the kind of experiment: Ba/F3-TEL-FGFR3 cell proliferation assay (Alamar Blue). It counts as cell-based. The following applies: 72 hours; for BaF3-TEL-FGFR3 prolif (μM): % at 10.0 μM; for GI50: read-out: BaF3-TEL-FGFR3 prolif. As to the method: as §1, §2

The target of the next assay is T2, VEGFR2 (Homo sapiens, UniProt P35968).
T2 construct: purchased Upstate
T2 sequence (P35968 20-1356): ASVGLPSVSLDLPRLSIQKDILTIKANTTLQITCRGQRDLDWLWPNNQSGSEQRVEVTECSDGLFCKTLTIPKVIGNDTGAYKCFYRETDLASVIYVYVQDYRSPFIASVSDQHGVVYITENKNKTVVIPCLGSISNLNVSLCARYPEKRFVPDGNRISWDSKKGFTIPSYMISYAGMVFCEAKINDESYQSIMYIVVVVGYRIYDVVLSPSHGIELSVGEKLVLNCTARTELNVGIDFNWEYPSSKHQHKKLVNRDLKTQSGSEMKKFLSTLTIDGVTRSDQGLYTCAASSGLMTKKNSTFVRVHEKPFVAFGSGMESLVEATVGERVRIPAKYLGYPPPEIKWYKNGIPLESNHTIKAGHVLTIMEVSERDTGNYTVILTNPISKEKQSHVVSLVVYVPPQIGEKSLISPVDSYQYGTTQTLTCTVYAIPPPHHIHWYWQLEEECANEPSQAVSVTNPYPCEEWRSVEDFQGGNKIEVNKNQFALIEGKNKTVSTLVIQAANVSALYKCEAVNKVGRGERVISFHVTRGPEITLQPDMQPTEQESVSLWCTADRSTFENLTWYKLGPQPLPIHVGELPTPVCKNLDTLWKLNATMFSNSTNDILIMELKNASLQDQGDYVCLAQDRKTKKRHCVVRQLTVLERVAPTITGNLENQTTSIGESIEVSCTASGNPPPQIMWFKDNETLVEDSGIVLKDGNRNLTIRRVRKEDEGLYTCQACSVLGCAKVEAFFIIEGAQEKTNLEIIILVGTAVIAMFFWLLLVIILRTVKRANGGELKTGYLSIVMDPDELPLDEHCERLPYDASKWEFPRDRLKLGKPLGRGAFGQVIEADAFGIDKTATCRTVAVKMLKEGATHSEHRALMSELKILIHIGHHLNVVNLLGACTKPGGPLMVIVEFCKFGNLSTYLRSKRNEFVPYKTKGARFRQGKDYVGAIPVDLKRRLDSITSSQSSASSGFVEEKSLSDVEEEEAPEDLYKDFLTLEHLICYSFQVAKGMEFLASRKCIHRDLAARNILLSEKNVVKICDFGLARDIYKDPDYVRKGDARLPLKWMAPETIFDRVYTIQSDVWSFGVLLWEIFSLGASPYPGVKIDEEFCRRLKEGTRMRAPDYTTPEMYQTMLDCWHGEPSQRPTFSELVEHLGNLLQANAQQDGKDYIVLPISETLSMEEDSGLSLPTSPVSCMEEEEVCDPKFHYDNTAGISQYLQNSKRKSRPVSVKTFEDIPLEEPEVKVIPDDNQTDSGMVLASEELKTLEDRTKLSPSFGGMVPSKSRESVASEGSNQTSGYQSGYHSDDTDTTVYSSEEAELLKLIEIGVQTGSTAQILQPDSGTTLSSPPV
As to the kind of experiment: VEGFR2 in vitro kinase inhibitory activity assay (TRF). It counts as biochemical. Conditions: 0.5 μM ATP, 1 hour; read-out: VEGFR2 IC50(μM) or % I. The protocol: (§3) FGFR3, VEGFR2 and PDGFR in vitro Kinase Inhibitory Activity Assays
(§4) Enzymes (from Upstate), prepared at 2× final concentration, were incubated with test compounds, biotinylated Flt3 substrate (biotin-VASSDNEYFYVDF) (Cell Signalling Technology Inc.) and ATP in the appropriate assay buffer (Table 1). The reaction was allowed to proceed for 3 hours (FGFR3), 1 hour (VEGFR2, PDGFR-beta) at room temperature on a plate shaker at 700 rpm before being stopped with 35 mM EDTA, pH 8 (FGFR3, VEGFR2) or 55 mM EDTA, pH 8 (PDGFR-beta). 5× detection mix (50 mM HEPES pH 7.5, 0.1% BSA, 11.34 nM Eu-anti-pY (PY20) (PerkinElmer) 74 nM SA-XL665 (Cisbio) for FGFR3, 50 mM HEPES, pH 7.5, 0.1% BSA, 11.34 nM Eu-anti-pY (PY20), 187.5 nM SA-XL665 for VEGFR2 and 50 mM HEPES, pH 7.5, 0.1% BSA, 11.34 nM Eu-anti-pY (PT66) (PerkinElmer), 375 nM SA-XL665 (Cisbio) for PDGFR-beta) was then added to each well and the plate sealed and incubated at room temperature for one hour on a plate shaker at 700 rpm. The plate was then read on a Packard Fusion plate reader or a BMG Pherastar both in TRF mode.

The next assay deals with T3, FGFR3 (Homo sapiens, UniProt P22607).
T3 construct: purchased Upstate
T3 sequence (P22607 23-806): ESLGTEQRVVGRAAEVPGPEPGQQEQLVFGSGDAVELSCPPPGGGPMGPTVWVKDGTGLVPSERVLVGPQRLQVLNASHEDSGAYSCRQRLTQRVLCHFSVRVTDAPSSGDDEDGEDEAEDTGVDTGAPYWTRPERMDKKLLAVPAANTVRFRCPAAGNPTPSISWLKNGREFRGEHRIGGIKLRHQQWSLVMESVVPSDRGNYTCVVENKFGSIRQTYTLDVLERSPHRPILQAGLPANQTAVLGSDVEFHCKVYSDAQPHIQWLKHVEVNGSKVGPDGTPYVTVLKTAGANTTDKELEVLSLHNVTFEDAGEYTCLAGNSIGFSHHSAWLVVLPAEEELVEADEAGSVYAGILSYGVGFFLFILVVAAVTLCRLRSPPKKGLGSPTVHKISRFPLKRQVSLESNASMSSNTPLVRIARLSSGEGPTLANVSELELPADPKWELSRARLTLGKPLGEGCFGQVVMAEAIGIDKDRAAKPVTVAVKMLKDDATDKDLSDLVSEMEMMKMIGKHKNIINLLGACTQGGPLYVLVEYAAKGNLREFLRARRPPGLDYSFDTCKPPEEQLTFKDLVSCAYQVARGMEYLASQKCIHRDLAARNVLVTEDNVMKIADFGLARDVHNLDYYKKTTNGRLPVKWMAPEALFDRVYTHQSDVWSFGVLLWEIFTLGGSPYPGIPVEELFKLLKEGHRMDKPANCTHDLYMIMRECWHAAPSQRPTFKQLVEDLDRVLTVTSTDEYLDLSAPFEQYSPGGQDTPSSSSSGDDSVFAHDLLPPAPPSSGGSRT
As to the kind of experiment: FGFR3 in vitro kinase inhibitory activity assay (TRF). It counts as biochemical. Conditions: 8 μM ATP, 3 hours; read-out: FGFR3 IC50(μM) or % I. As to the method: as §3, §4

T1 sequence (P22607 whole entry, change not shown, the tested form may be a part): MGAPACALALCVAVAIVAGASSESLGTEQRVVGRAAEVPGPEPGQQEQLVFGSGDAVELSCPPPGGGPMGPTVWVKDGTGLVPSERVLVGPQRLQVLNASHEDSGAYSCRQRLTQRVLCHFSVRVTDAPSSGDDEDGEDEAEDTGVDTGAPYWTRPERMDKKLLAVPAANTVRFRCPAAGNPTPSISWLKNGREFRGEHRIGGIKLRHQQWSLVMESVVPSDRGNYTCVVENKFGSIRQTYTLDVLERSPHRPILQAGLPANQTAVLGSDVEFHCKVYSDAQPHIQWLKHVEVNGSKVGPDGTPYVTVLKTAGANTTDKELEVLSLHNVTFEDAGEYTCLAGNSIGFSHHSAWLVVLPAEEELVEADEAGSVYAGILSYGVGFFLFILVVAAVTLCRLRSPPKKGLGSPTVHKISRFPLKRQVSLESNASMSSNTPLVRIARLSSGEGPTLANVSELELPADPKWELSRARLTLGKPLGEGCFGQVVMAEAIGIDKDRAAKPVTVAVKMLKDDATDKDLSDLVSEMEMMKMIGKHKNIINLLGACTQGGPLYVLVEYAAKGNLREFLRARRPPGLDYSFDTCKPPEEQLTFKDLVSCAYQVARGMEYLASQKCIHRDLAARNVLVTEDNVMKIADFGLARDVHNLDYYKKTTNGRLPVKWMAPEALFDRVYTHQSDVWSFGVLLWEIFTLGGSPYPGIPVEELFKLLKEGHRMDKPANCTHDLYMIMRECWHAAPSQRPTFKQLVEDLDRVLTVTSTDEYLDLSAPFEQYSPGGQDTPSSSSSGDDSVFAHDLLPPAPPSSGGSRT

With `CN1CCC(NCCCON=Cc2ccn3c(-c4cccc(NC(=O)NCC(F)(F)F)c4)cnc3c2)CC1` [Compound 1-34, 1-[3-(7-{[3-(1-Methyl-piperidin-4-ylamino)-propoxyimino]-methyl}-imidazo[1,2-a]pyridin-3-yl)-phenyl]-3-(2,2,2-trifluoro-ethyl)-urea], the inhibition at 10 µM in assay [1] came to 0%. On Ba/F3-TEL-FGFR3 cells, the “BaF3-TEL-FGFR3 prolif (μM)” value came to 60.0% at. In addition, the IC50 on VEGFR2 was determined as 0.26 µM; at FGFR3, 0.038 µM.

For `O=C(NCC(F)(F)F)Nc1cccc(-c2cnc3cc(C=NOCCCN4CCCC4)ccn23)c1` [Compound 1-35, 1-(3-{7-[(3-Pyrrolidin-1-yl-propoxyimino)-methyl]-imidazo[1,2-a]pyridin-3-yl}-phenyl)-3-(2,2,2-trifluoro-ethyl)-urea], in assay [1], the inhibition at 3 µM was determined as 28%. Further, the GI50 on Ba/F3-TEL-FGFR3 cells was 560 nM. Further, the IC50 at VEGFR2 stood at 0.33 µM; on FGFR3, 0.023 µM.

Turning to `COC1CCN(CCCON=Cc2ccn3c(-c4cccc(NC(=O)NCC(F)(F)F)c4)cnc3c2)CC1` [Compound 1-36, 1-[3-(7-{[3-(4-Methoxy-piperidin-1-yl)-propoxyimino]-methyl}-imidazo[1,2-a]pyridin-3-yl)-phenyl]-3-(2,2,2-trifluoro-ethyl)-urea], the inhibition at 3 µM in assay [1] is 34%. In addition, the GI50 at Ba/F3-TEL-FGFR3 cells worked out at 380 nM. Further, the IC50 at VEGFR2 is 0.36 µM; on FGFR3 it was 0.024 µM.

`O=C(NCC(F)(F)F)Nc1cccc(-c2cnc3cc(C=NOCCCNC4CCOCC4)ccn23)c1` [Compound 1-37, 1-[3-(7-{[3-(Tetrahydro-pyran-4-ylamino)-propoxyimino]-methyl}-imidazo[1,2-a]pyridin-3-yl)-phenyl]-3-(2,2,2-trifluoro-ethyl)-urea]: in assay [1], the inhibition at 10 µM came to 43%. Moreover, the GI50 at Ba/F3-TEL-FGFR3 cells came to 3500 nM. In addition, the IC50 at VEGFR2 is 0.27 µM; on FGFR3, 0.028 µM.

With `O=C(NCC(F)(F)F)Nc1cccc(-c2cnc3cc(C=NOCCCN4CCC(O)C4)ccn23)c1` (stereo not shown) [Compound 1-38, 1-[3-(7-{[3-(3-Hydroxy-pyrrolidin-1-yl)-propoxyimino]-methyl}-imidazo[1,2-a]pyridin-3-yl)-phenyl]-3-(2,2,2-trifluoro-ethyl)-urea], the inhibition at 10 µM in assay [1] came out at 21%. For the same compound, on Ba/F3-TEL-FGFR3 cells, the GI50 amounted to 1800 nM. Further, the figures for the IC50 at VEGFR2 and at FGFR3 were 0.39 µM and 0.026 µM, respectively.

In the case of `O=C(NCC(F)(F)F)Nc1cccc(-c2cnc3cc(C=NOCCCN4CCN(CCO)CC4)ccn23)c1` [Compound 1-39, 1-{3-[7-({3-[4-(2-Hydroxy-ethyl)-piperazin-1-yl]-propoxyimino}-methyl)-imidazo[1,2-a]pyridin-3-yl]-phenyl}-3-(2,2,2-trifluoro-ethyl)-urea], the inhibition at 3 µM in assay [1] turned out to be 47%. For the same compound, the GI50 at Ba/F3-TEL-FGFR3 cells was found to be 1300 nM. Further, the IC50 was 0.39 µM at VEGFR2 and 0.025 µM on FGFR3.

Regarding `COCCN(CCON=Cc1ccn2c(-c3cccc(NC(=O)NCC(F)(F)F)c3)cnc2c1)Cc1ccccc1` [Compound 1-41, 1-{3-[7-({2-[Benzyl-(2-methoxy-ethyl)-amino]-ethoxyimino}-methyl)-imidazo[1,2-a]pyridin-3-yl]-phenyl}-3-(2,2,2-trifluoro-ethyl)-urea], the IC50 in assay [1] was 5900 nM; at VEGFR2 it was 1.79 µM; on FGFR3, 0.0551 µM. At Ba/F3-TEL-FGFR3 cells, the GI50 stood at 860 nM.

As for `CN(CCON=Cc1ccn2c(-c3cccc(NC(=O)NCC(F)(F)F)c3)cnc2c1)CCS(C)(=O)=O` [Compound 1-42, 1-{3-[7-({2-[(2-Methanesulfonyl-ethyl)-methyl-amino]-ethoxyimino}-methyl)-imidazo[1,2-a]pyridin-3-yl]-phenyl}-3-(2,2,2-trifluoro-ethyl)-urea], the inhibition at 10 µM in assay [1] was determined as 10%. The GI50 on Ba/F3-TEL-FGFR3 cells was found to be 1300 nM. Besides, the IC50 at VEGFR2 was 0.54 µM; at FGFR3, 0.017 µM.

For `O=C(NCC(F)(F)F)Nc1cccc(-c2cnc3cc(C=NOCC(O)CN4CCC(O)CC4)ccn23)c1` (stereo not shown) [Compound 1-43, 1-[3-(7-{[2-Hydroxy-3-(4-hydroxy-piperidin-1-yl)-propoxyimino]-methyl}-imidazo[1,2-a]pyridin-3-yl)-phenyl]-3-(2,2,2-trifluoro-ethyl)-urea], the inhibition at 10 µM in assay [1] was 0%. Besides, the GI50 at Ba/F3-TEL-FGFR3 cells worked out at 6600 nM. Besides, the figures for the IC50 on VEGFR2 and on FGFR3 were 0.52 µM and 0.024 µM, respectively.

Turning to `COCCO/N=C(\C)c1ccn2c(-c3cccc(NC(=O)NCC(F)(F)F)c3)cnc2c1` [Compound 1-45, 1-[3-(7-{1-[2-Methoxy-ethoxyimino]-ethyl}-imidazo[1,2-a]pyridin-3-yl)-phenyl]-3-(2,2,2-trifluoro-ethyl)-urea], the results for the IC50 (in assay [1]; on VEGFR2; at FGFR3) were 4000 nM, 0.068 µM and 0.0041 µM, respectively. The GI50 at Ba/F3-TEL-FGFR3 cells was 48 nM.

`C/C(=N\OCCOCCO)c1ccn2c(-c3cccc(NC(=O)NCC(F)(F)F)c3)cnc2c1` [Compound 1-46, 1-[3-(7-{1-[2-(2-Hydroxy-ethoxy)-ethoxyimino]-ethyl}-imidazo[1,2-a]pyridin-3-yl)-phenyl]-3-(2,2,2-trifluoro-ethyl)-urea]: in assay [1], the inhibition at 10 µM came to 39%. The GI50 at Ba/F3-TEL-FGFR3 cells is 32 nM. The IC50 on VEGFR2 is 0.068 µM; at FGFR3, 0.0031 µM.

As to `C/C(=N\OCCCO)c1ccn2c(-c3cccc(NC(=O)NCC(F)(F)F)c3)cnc2c1` [Compound 1-47, 1-[3-(7-{1-[3-Hydroxy-propoxyimino]-ethyl}-imidazo[1,2-a]pyridin-3-yl)-phenyl]-3-(2,2,2-trifluoro-ethyl)-urea], the inhibition at 10 µM in assay [1] amounted to 63%. Besides, the “BaF3-TEL-FGFR3 prolif (μM)” value at Ba/F3-TEL-FGFR3 cells is 0.000% at. Also, the results for the IC50 at VEGFR2 and at FGFR3 were 0.051 µM and 0.0023 µM, respectively.

For `COCCN1CCC(CCON=Cc2ccn3c(-c4cccc(NC(=O)NCC(F)(F)F)c4)cnc3c2)CC1` [Compound 1-48, 1-{3-[7-({2-[1-(2-Methoxy-ethyl)-piperidin-4-yl]-ethoxyimino}-methyl)-imidazo[1,2-a]pyridin-3-yl]-phenyl}-3-(2,2,2-trifluoro-ethyl)-urea], the IC50 is 1800 nM in assay [1], 0.4 µM on VEGFR2 and 0.023 µM at FGFR3. The GI50 on Ba/F3-TEL-FGFR3 cells is 600 nM.

Regarding `O=C(NCC(F)(F)F)Nc1cccc(-c2cnc3cc(C=NOCCC4CCN(CCO)CC4)ccn23)c1` [Compound 1-49, 1-{3-[7-({2-[1-(2-Hydroxy-ethyl)-piperidin-4-yl]-ethoxyimino}-methyl)-imidazo[1,2-a]pyridin-3-yl]-phenyl}-3-(2,2,2-trifluoro-ethyl)-urea], the inhibition at 3 µM in assay [1] came out at 36%. Also, the GI50 at Ba/F3-TEL-FGFR3 cells stood at 1400 nM. Further, the IC50 on VEGFR2 amounted to 0.33 µM; on FGFR3, 0.019 µM.

In the case of `O=C(NCC(F)(F)F)Nc1cccc(-c2cnc3cc(C(=NO)C4CC4)ccn23)c1` [Compound 1-50, 1-[3-(7-{Cyclopropyl-hydroxyimino-methyl}-imidazo[1,2-a]pyridin-3-yl)-phenyl]-3-(2,2,2-trifluoro-ethyl)-urea], the inhibition at 10 µM in assay [1] came out at 62%. The GI50 at Ba/F3-TEL-FGFR3 cells was found to be 300 nM. The IC50 at VEGFR2 is 0.23 µM; at FGFR3, 0.0097 µM.

`CN1CCN(C(=O)CCON=Cc2ccn3c(-c4cccc(NC(=O)NCC(F)(F)F)c4)cnc3c2)CC1` [Compound 1-51, 1-[3-(7-{[3-(4-Methyl-piperazin-1-yl)-3-oxo-propoxyimino]-methyl}-imidazo[1,2-a]pyridin-3-yl)-phenyl]-3-(2,2,2-trifluoro-ethyl)-urea]: the inhibition at 10 µM in assay [1] came to 27%. The GI50 on Ba/F3-TEL-FGFR3 cells stood at 2200 nM. In addition, the IC50 on VEGFR2 came out at 0.88 µM; at FGFR3, 0.033 µM.
